According to ChEMBL document CHEMBL1152576, “E-Combretastatin and E-resveratrol structural modifications: antimicrobial and cancer cell growth inhibitory beta-E-nitrostyrenes” (Bioorg Med Chem, 2009):
Converted amounts (≈) assume the structure as drawn. The source made the active and inactive calls. The calls are words filed in the database; no cut-off is given here.

test system: OVCAR-3; assay: Cytotoxicity against human OVCAR-3 cells after 48 hrs by sulforhodamine B assay; format: functional; conditions: OVCAR-3, 48 h

| Structure (SMILES) | GI50 |
| --- | --- |
| COc1cc(OC)c(/C=C/[N+](=O)[O-])c(OC)c1 | 0.42 µg/mL (≈ 1.76 µM) |
| COc1cc(/C=C/[N+](=O)[O-])cc(O[Si](C)(C)C(C)(C)C)c1OC | > 10 µg/mL |

test system: P388; assay: Cytotoxicity against mouse P388 cells after 48 hrs by sulforhodamine B assay; format: functional; conditions: P388, 48 h, read-out: ED50 (the source's name)

| Structure (SMILES) | EC50 |
| --- | --- |
| COc1cc(OC)c(/C=C/[N+](=O)[O-])c(OC)c1 | 14 µg/mL (≈ 58.5 µM) |
| COc1cc(/C=C/[N+](=O)[O-])cc(O[Si](C)(C)C(C)(C)C)c1OC | 32.6 µg/mL (≈ 96 µM) |

test system: Stenotrophomonas maltophilia; assay: Antimicrobial activity against Stenotrophomonas maltophilia ATCC 13637 assessed clear zone in inhibition per disk by CLSI disk diffusion susceptibility assay; format: functional; conditions: not given

| Structure (SMILES) | MIC |
| --- | --- |
| COc1cc(OC)c(/C=C/[N+](=O)[O-])c(OC)c1 | >100 µg |
| COc1cc(/C=C/[N+](=O)[O-])cc(O[Si](C)(C)C(C)(C)C)c1OC | >100 µg |

test system: Candida albicans; assay: Antimicrobial activity against Candida albicans ATCC 90028 assessed clear zone in inhibition per disk by CLSI disk diffusion susceptibility assay; format: functional; conditions: not given

| Structure (SMILES) | MIC |
| --- | --- |
| COc1cc(OC)c(/C=C/[N+](=O)[O-])c(OC)c1 | >100 µg |
| COc1cc(/C=C/[N+](=O)[O-])cc(O[Si](C)(C)C(C)(C)C)c1OC | >100 µg |

test system: Streptococcus pneumoniae; assay: Antimicrobial activity against Streptococcus pneumoniae ATCC 6303 assessed clear zone in inhibition per disk by CLSI disk diffusion susceptibility assay; format: functional; conditions: not given

| Structure (SMILES) | MIC |
| --- | --- |
| COc1cc(OC)c(/C=C/[N+](=O)[O-])c(OC)c1 | >100 µg |
| COc1cc(/C=C/[N+](=O)[O-])cc(O[Si](C)(C)C(C)(C)C)c1OC | 3.12 µg |

test system: MCF7; assay: Cytotoxicity against human MCF7 cells after 48 hrs by sulforhodamine B assay; format: functional; conditions: not given

| Structure (SMILES) | GI50 |
| --- | --- |
| COc1cc(OC)c(/C=C/[N+](=O)[O-])c(OC)c1 | inactive |
| COc1cc(/C=C/[N+](=O)[O-])cc(O[Si](C)(C)C(C)(C)C)c1OC | inactive |

test system: Escherichia coli; assay: Antimicrobial activity against Escherichia coli ATCC 25922 assessed clear zone in inhibition per disk by CLSI disk diffusion susceptibility assay; format: functional; conditions: not given

| Structure (SMILES) | MIC |
| --- | --- |
| COc1cc(OC)c(/C=C/[N+](=O)[O-])c(OC)c1 | >100 µg |
| COc1cc(/C=C/[N+](=O)[O-])cc(O[Si](C)(C)C(C)(C)C)c1OC | >100 µg |

test system: Enterococcus faecalis; assay: Antimicrobial activity against Enterococcus faecalis ATCC 29212 assessed clear zone in inhibition per disk by CLSI disk diffusion susceptibility assay; format: functional; conditions: not given

| Structure (SMILES) | MIC |
| --- | --- |
| COc1cc(OC)c(/C=C/[N+](=O)[O-])c(OC)c1 | >100 µg |
| COc1cc(/C=C/[N+](=O)[O-])cc(O[Si](C)(C)C(C)(C)C)c1OC | 3.12 µg |

test system: SK-MEL-5; assay: Cytotoxicity against human SK-MEL-5 cells after 48 hrs by sulforhodamine B assay; format: functional; conditions: not given

| Structure (SMILES) | GI50 |
| --- | --- |
| COc1cc(/C=C/[N+](=O)[O-])cc(O[Si](C)(C)C(C)(C)C)c1OC | inactive |

same assay, conditions: SK-MEL-5, 48 h

| Structure (SMILES) | GI50 |
| --- | --- |
| COc1cc(OC)c(/C=C/[N+](=O)[O-])c(OC)c1 | 0.61 µg/mL (≈ 2.55 µM) |

test system: DU-145; assay: Cytotoxicity against human DU145 cells after 48 hrs by sulforhodamine B assay; format: functional; conditions: not given

| Structure (SMILES) | GI50 |
| --- | --- |
| COc1cc(OC)c(/C=C/[N+](=O)[O-])c(OC)c1 | inactive |

same assay, conditions: DU-145, 48 h

| Structure (SMILES) | GI50 |
| --- | --- |
| COc1cc(/C=C/[N+](=O)[O-])cc(O[Si](C)(C)C(C)(C)C)c1OC | > 10 µg/mL |

test system: SF-295; assay: Cytotoxicity against human SF295 cells after 48 hrs by sulforhodamine B assay; format: functional; conditions: SF-295, 48 h

| Structure (SMILES) | GI50 |
| --- | --- |
| COc1cc(OC)c(/C=C/[N+](=O)[O-])c(OC)c1 | 0.45 µg/mL (≈ 1.88 µM) |
| COc1cc(/C=C/[N+](=O)[O-])cc(O[Si](C)(C)C(C)(C)C)c1OC | > 10 µg/mL |

test system: Micrococcus luteus; assay: Antimicrobial activity against Micrococcus luteus Presque Isle 456 assessed clear zone in inhibition per disk by CLSI disk diffusion susceptibility assay; format: functional; conditions: not given

| Structure (SMILES) | MIC |
| --- | --- |
| COc1cc(OC)c(/C=C/[N+](=O)[O-])c(OC)c1 | >100 µg |
| COc1cc(/C=C/[N+](=O)[O-])cc(O[Si](C)(C)C(C)(C)C)c1OC | 1.56 µg |

test system: Cryptococcus neoformans; assay: Antimicrobial activity against Cryptococcus neoformans ATCC 90112 assessed clear zone in inhibition per disk by CLSI disk diffusion susceptibility assay; format: functional; conditions: not given

| Structure (SMILES) | MIC |
| --- | --- |
| COc1cc(OC)c(/C=C/[N+](=O)[O-])c(OC)c1 | >100 µg |
| COc1cc(/C=C/[N+](=O)[O-])cc(O[Si](C)(C)C(C)(C)C)c1OC | 25 µg |

test system: BXPC-3; assay: Cytotoxicity against human BxPC3 cells after 48 hrs by sulforhodamine B assay; format: functional; conditions: not given

| Structure (SMILES) | GI50 |
| --- | --- |
| COc1cc(OC)c(/C=C/[N+](=O)[O-])c(OC)c1 | inactive |

same assay, conditions: BXPC-3, 48 h

| Structure (SMILES) | GI50 |
| --- | --- |
| COc1cc(/C=C/[N+](=O)[O-])cc(O[Si](C)(C)C(C)(C)C)c1OC | > 10 µg/mL |

test system: not listed separately; assay: Inhibition of tubulin polymerization; conditions: not given

| IC50 | Structure (SMILES) |
| --- | --- |
| 12 µM | COc1cc(/C=C/[N+](=O)[O-])cc(O[Si](C)(C)C(C)(C)C)c1OC |

test system: SF-268; assay: Cytotoxicity against human SF268 cells after 48 hrs by sulforhodamine B assay; format: functional; conditions: not given

| Structure (SMILES) | GI50 |
| --- | --- |
| COc1cc(OC)c(/C=C/[N+](=O)[O-])c(OC)c1 | inactive |
| COc1cc(/C=C/[N+](=O)[O-])cc(O[Si](C)(C)C(C)(C)C)c1OC | inactive |

test system: KM-20L2; assay: Cytotoxicity against human KM20L2 cells after 48 hrs by sulforhodamine B assay; format: functional; conditions: KM-20L2, 48 h

| Structure (SMILES) | GI50 |
| --- | --- |
| COc1cc(OC)c(/C=C/[N+](=O)[O-])c(OC)c1 | 0.38 µg/mL (≈ 1.59 µM) |
| COc1cc(/C=C/[N+](=O)[O-])cc(O[Si](C)(C)C(C)(C)C)c1OC | > 10 µg/mL |

test system: Neisseria gonorrhoeae; assay: Antimicrobial activity against Neisseria gonorrhoeae ATCC 49226 assessed clear zone of inhibition measured per disk by CLSI disk diffusion susceptibility assay; format: functional; conditions: not given

| Structure (SMILES) | MIC |
| --- | --- |
| COc1cc(OC)c(/C=C/[N+](=O)[O-])c(OC)c1 | >100 µg |
| COc1cc(/C=C/[N+](=O)[O-])cc(O[Si](C)(C)C(C)(C)C)c1OC | 3.12 µg |

test system: NCI-H460; assay: Cytotoxicity against human NCI-H460 cells after 48 hrs by sulforhodamine B assay; format: functional; conditions: NCI-H460, 48 h

| Structure (SMILES) | GI50 |
| --- | --- |
| COc1cc(OC)c(/C=C/[N+](=O)[O-])c(OC)c1 | 0.32 µg/mL (≈ 1.34 µM) |
| COc1cc(/C=C/[N+](=O)[O-])cc(O[Si](C)(C)C(C)(C)C)c1OC | > 10 µg/mL |

test system: A498; assay: Cytotoxicity against human A498 cells after 48 hrs by sulforhodamine B assay; format: functional; conditions: not given

| Structure (SMILES) | GI50 |
| --- | --- |
| COc1cc(/C=C/[N+](=O)[O-])cc(O[Si](C)(C)C(C)(C)C)c1OC | inactive |

same assay, conditions: A498, 48 h

| Structure (SMILES) | GI50 |
| --- | --- |
| COc1cc(OC)c(/C=C/[N+](=O)[O-])c(OC)c1 | 0.36 µg/mL (≈ 1.5 µM) |

test system: Staphylococcus aureus; assay: Antimicrobial activity against Staphylococcus aureus ATCC 29213 assessed clear zone in inhibition per disk by CLSI disk diffusion susceptibility assay; format: functional; conditions: not given

| Structure (SMILES) | MIC |
| --- | --- |
| COc1cc(OC)c(/C=C/[N+](=O)[O-])c(OC)c1 | >100 µg |
| COc1cc(/C=C/[N+](=O)[O-])cc(O[Si](C)(C)C(C)(C)C)c1OC | 3.12 µg |

test system: Enterobacter cloacae; assay: Antimicrobial activity against Enterobacter cloacae ATCC 13047 assessed clear zone in inhibition per disk by CLSI disk diffusion susceptibility assay; format: functional; conditions: not given

| Structure (SMILES) | MIC |
| --- | --- |
| COc1cc(OC)c(/C=C/[N+](=O)[O-])c(OC)c1 | >100 µg |
| COc1cc(/C=C/[N+](=O)[O-])cc(O[Si](C)(C)C(C)(C)C)c1OC | >100 µg |
